Laboratory results reported in patent US20070087400A1, “Covalent tethering of functional groups to proteins and substrates therefor” (priority 2004, published 2007).
Read-outs that look alike come from different tables or passages of the source.

Legend:
DhaA.WT = DhaA.WT (Rhodococcus rhodochrous, UniProt P0A3G2); assay: Hydrolysis of Cl-alkanes, pH-indicator dye (phenol red) assay; format: biochemical
From the text: To study the effect of a point mutation on the activity of DhaA (WT or mutant) hydrolysis of Cl-alkanes, a pH-indicator dye system as described by Holloway et al. (1998) was employed.

[1] = system: DhaA.H272 mutants, i.e. H272F/G/A/Q; assay: In vitro binding and pretreatment blocking, SDS-PAGE; set-up: species or system Rhodococcus rhodochrous
From the text: FIG. 10 illustrates that pretreatment of a mutant DhaA with a substrate, biotin-C10H21NO2—Cl, blocks binding of another substrate. DhaA.WT-lanes 1 and 2; DhaA.H272 mutants: F, lanes 3 and 4; G, lanes 5 and 6; A, lanes 7 and 8; and Q, lanes 9 and 10. Samples 2, 4, 6, 8, and 10 were pretreated with biotin-C10H21NO2—Cl.
(§1) Then the proteins were resolved on SDS-PAGE.

CHO-K1 cells [2] = assay: Toxicity of Cl-alkanes, CellTiter-Glo Luminescence Cell Viability Assay; format: cell-based
Protocol: To study the toxicity of Cl-alkanes, CHO-K1 cells were plated in 96 well plates to a density of 5,000 cells per well. […] Viability of the cells was measured with CellTiter-Glo™ Luminescence Cell Viability Assay (Promega) according to the manufacturer's protocol. Generally, 100 μl of CellTiter-Glo™ reagent was added directly to the cells and the luminescence was recorded at 10 minutes using a DYNEX MLX microtiter plate luminometer.

E. coli = assay: Permeability of plasma membrane of prokaryotic cells to substrates
[3] = Tethering of R.Luc-DhaA fusions to streptavidin-coated plates via biotin Cl-alkane; settings: pretreatment of R.Luc-connector-DhaA.H272F
Protocol: Translated proteins were contacted with biotin-C10H21N1O2—Cl substrate at 25 μM (final concentration), for 60 minutes at room temperature. Unbound biotin-C10H21N1O2—Cl was removed by gel-filtration on Sephadex G-25 prepackaged columns (Amersham Biosciences). Collected fractions of R.Luc-connector-DhaA fusions were placed in SA-coated 96-well plate for 1 hour at room temperature, unbound proteins were washed out and luciferase activity was measured.

CHO-K1 cells [4] = assay: Permeability of cell membrane to substrates (uptake and wash-out)
Protocol: (§2) Fresh media was then added to cells, and the cells were returned to the CO2 incubator at 37° C. The level of fluorescence in cells in 96 well plates was measured on fluorescent plate reader CytoFluor II (Beckman) at Eex/Eem equal 480/520 nm and 540/575 nm for carboxyfluorescein-and carboxytetramethylrhodamine-modified substrates, respectively. Fluorescent images of the cells were taken on inverted epifluorescent microscope Axiovert-100 (Carl Zeiss) with filter sets appropriate for detection of FITC and carboxytetramethylrhodamine.

streptavidin = streptavidin (Streptomyces avidinii, UniProt P22629); settings: surface plasmon resonance; cited from earlier work
[5] = molecular target: tetracysteine domain in a recombinant protein; settings: cited from earlier work
DhaA.H272F = DhaA.H272F (Rhodococcus rhodochrous, UniProt P0A3G2, H272F); assay: In vitro binding of Cl-alkanes with functional groups, SDS-PAGE with fluoroimager or HRP-streptavidin; settings: dose dependent, 0.04-125 μM tested
From the text: as §1

CHO-K1 cells [6] = system: CHO-K1 cells
Protocol: as §2

Compound: OCCCCCCCCCCCl [1-Cl-alkane-10-decanol]
- initial rate of hydrolysis (IRH) (DhaA.WT; first 60 seconds after enzyme addition): much higher than the IRH of 1-Cl-decane

Compound: N-{2-[2-(6-Chlorohexyloxy)-ethoxy]-ethyl}-tetramethylrhodamine-5-(and -6)-amide
- binding to DhaA.H272F/G/A/Q [1]: bound
- toxicity after a 4 hour treatment (CHO-K1 cells [2]; 100 μM (the highest concentration tested)): no toxicity
- maximum non-toxic concentration (CHO-K1 cells [2]; 24 hour treatment): 6.25 µM
- IC50 (CHO-K1 cells [2]; 24 hour treatment, read-out: IC50 of reduction of relative luminescence): ~100 µM
- permeability of plasma membrane of E. coli (E. coli): permeable
- decrease of efficiency of capturing by pretreatment with non-biotinylated substrate [3]: about 80%
- permeability of plasma membrane of CHO-K1 cells (CHO-K1 cells [4]): permeable

Compound: O=C(O)CCCC[C@@H]1SC[C@@H]2NC(=O)N[C@@H]21 [biotin]
- on-rate (streptavidin): 5e+06 M⁻¹ s⁻¹

Compound: O=C1OC2(c3ccccc31)c1ccc(O)c([As]3SCCS3)c1Oc1c2ccc(O)c1[As]1SCCS1 [FLASH, 4′,5′-bis(1,3,2-dithioarsolan-2-yl)fluorescein]
- dissociation constant [5]: nanomolar or lower

Compound: CCCCCl [1-Cl-butane]
- activity of the wild-type enzyme with the substrate (DhaA.WT; 0.1 mg/ml of enzyme and 10 mM substrate at pH 7.0-8.2): 5 units/mg of protein

Compound: O=C(NCCOCCOCCCCCCCl)c1ccc(-c2c3ccc(=O)cc-3oc3cc(O)ccc23)c(C(=O)O)c1 [N-{2-[2-(6-Chlorohexyloxy)-ethoxyl-ethyl}-fluorescein-5-amide]
- permeability of plasma membrane of CHO-K1 cells (CHO-K1 cells [4]): did not cross the plasma membrane

Compound: O=C(CCCC[C@@H]1SC[C@@H]2NC(=O)N[C@@H]21)NCCOCCOCCCCCCCl [biotin-C10H21NO2—Cl]
- concentration at which binding to DhaA.H272F could be detected (DhaA.H272F): 0.2 µM
- permeability of plasma membrane of E. coli (E. coli): permeable
- permeability of plasma membrane of CHO-K1 cells (CHO-K1 cells [6]): permeable
